{"source": "ChEMBL document CHEMBL1201862", "about": "“PubChem BioAssay data set” (2004)", "key": {"[1]": {"molecular_target": "Voltage-dependent T-type calcium channel subunit alpha-1H (Homo sapiens, UniProt O95180)", "assay_type": "functional"}, "Ephrin type-A receptor 4": {"molecular_target": "Ephrin type-A receptor 4 (Mus musculus, UniProt Q03137)", "assay": "EphA4 ligand-binding antagonists – biochemical, colorimetric, mouse EphA4, primary screen (AID 689)", "assay_type": "functional"}, "[2]": {"assay": "viability of uninfected HEp-2 cells – cell-based, HTS, cytotoxicity control for RSV inhibitor project, dose response (AID 2410)", "assay_type": "functional", "settings": "human respiratory syncytial virus"}, "cells [3]": {"assay": "cells"}, "Vero": {"tested_on": "Vero", "assay": "cells", "assay_type": "functional, cell-based", "settings": "Chlorocebus sabaeus"}, "[4]": {"molecular_target": "Protein-tyrosine kinase 2-beta (Homo sapiens, UniProt Q14289)", "sequence (Q14289 whole entry)": "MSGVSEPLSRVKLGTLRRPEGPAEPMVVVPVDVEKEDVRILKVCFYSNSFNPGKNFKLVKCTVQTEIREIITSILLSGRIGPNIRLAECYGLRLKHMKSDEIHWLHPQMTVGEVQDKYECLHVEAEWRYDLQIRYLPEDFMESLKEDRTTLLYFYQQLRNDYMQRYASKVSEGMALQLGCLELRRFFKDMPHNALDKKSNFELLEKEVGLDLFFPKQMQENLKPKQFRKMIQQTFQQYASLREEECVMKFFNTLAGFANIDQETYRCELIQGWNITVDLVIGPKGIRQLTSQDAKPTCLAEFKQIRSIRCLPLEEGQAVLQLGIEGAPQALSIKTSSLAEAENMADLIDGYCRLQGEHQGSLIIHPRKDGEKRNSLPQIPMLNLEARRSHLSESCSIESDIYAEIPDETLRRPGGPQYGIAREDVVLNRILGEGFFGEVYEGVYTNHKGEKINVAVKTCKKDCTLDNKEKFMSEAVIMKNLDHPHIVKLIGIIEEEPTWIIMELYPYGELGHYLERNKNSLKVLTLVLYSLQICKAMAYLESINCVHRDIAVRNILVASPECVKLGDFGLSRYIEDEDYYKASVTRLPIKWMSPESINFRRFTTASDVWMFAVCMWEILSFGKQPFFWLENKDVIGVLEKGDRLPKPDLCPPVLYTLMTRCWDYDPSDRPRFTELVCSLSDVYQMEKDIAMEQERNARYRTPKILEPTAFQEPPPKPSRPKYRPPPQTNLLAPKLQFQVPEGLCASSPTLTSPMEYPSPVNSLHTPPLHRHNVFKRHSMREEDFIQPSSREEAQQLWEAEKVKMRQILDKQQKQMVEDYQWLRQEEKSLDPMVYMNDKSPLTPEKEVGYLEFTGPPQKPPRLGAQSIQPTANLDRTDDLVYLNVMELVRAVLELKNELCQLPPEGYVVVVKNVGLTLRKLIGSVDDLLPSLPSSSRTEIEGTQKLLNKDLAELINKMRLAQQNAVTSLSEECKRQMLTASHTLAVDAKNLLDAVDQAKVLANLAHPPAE"}, "Nonstructural protein 1": {"molecular_target": "Nonstructural protein 1 (Influenza A virus, UniProt Q194T2)", "sequence (Q194T2 whole entry)": "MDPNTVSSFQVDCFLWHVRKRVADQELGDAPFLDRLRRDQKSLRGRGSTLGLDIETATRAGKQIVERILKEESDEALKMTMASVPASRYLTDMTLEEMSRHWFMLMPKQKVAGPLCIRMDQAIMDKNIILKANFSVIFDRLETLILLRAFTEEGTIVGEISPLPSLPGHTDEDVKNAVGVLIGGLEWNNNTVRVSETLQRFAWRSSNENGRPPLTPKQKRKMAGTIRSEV", "assay_type": "functional, Influenza A virus (A/California/07/2009(H1N1))"}, "[5]": {"molecular_target": "Sphingosine 1-phosphate receptor 3 (Homo sapiens, UniProt Q99500)", "sequence (Q99500 whole entry)": "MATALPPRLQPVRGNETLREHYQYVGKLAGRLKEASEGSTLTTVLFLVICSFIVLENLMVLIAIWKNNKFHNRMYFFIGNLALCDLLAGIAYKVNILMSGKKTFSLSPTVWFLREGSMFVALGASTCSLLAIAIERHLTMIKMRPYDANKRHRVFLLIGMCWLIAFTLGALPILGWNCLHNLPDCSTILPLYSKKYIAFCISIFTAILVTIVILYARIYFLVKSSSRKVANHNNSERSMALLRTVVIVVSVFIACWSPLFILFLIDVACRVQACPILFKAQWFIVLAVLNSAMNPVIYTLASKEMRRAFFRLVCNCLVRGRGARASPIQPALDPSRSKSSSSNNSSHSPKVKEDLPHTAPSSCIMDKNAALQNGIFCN", "assay": "Dose response cell-based high throughput screening assay for antagonists of the Sphingosine 1-Phosphate Receptor 3 (S1P3). [Related pubchem assays: 1429, 485 ]", "assay_type": "functional"}, "[6]": {"molecular_target": "5-hydroxytryptamine receptor 1E (Homo sapiens, UniProt P28566)", "sequence (P28566 whole entry)": "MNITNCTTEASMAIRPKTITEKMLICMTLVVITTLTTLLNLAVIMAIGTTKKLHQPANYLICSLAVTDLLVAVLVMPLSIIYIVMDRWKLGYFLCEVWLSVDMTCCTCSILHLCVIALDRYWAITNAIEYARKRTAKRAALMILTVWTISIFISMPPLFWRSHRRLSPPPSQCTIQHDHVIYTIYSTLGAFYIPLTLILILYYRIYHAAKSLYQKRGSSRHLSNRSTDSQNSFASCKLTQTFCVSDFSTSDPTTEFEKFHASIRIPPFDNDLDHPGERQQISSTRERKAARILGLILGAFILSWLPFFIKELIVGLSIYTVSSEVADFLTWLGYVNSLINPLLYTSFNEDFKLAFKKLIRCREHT", "assay": "Counterscreen assay for S1P3 antagonists: Dose response cell-based high throughput screening assay to identify antagonists of the 5-Hydroxytryptamine Receptor Subtype 1E (5HT1E). [Related pubchem assays: 1429, 485 ]", "assay_type": "functional"}, "Cytochrome P450 2C9": {"molecular_target": "Cytochrome P450 2C9 (Homo sapiens, UniProt P11712)", "sequence (P11712 whole entry)": "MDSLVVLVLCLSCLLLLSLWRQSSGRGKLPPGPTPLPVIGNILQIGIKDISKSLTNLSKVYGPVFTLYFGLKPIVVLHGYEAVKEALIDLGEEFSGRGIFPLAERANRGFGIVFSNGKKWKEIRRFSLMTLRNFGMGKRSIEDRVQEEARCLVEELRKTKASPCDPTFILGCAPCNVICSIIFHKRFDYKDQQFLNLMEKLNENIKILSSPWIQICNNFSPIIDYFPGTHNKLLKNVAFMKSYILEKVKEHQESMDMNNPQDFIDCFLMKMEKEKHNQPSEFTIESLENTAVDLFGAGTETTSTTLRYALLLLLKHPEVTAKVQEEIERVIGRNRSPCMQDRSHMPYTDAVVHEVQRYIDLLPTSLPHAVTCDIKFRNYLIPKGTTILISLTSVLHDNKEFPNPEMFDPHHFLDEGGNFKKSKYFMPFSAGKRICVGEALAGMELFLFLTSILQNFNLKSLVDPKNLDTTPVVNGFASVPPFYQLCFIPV", "settings": "Potency"}, "[7]": {"molecular_target": "5-hydroxytryptamine receptor 1A (Homo sapiens, UniProt P08908)", "sequence (P08908 whole entry)": "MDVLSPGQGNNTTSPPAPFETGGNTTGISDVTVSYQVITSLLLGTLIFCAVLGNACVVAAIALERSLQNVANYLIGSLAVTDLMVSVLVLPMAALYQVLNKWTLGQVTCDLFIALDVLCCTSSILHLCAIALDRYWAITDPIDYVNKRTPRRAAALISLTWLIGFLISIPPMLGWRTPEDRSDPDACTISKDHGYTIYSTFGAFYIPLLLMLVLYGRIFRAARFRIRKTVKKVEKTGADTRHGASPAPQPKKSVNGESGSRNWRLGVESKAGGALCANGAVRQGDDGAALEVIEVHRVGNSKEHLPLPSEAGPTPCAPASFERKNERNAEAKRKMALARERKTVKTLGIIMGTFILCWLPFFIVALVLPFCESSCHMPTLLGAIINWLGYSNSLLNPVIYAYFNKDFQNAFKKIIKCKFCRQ", "assay_type": "functional"}, "Estrogen receptor beta [8]": {"molecular_target": "T1, Estrogen receptor beta (Homo sapiens, UniProt Q92731)", "T1 sequence (Q92731 whole entry)": "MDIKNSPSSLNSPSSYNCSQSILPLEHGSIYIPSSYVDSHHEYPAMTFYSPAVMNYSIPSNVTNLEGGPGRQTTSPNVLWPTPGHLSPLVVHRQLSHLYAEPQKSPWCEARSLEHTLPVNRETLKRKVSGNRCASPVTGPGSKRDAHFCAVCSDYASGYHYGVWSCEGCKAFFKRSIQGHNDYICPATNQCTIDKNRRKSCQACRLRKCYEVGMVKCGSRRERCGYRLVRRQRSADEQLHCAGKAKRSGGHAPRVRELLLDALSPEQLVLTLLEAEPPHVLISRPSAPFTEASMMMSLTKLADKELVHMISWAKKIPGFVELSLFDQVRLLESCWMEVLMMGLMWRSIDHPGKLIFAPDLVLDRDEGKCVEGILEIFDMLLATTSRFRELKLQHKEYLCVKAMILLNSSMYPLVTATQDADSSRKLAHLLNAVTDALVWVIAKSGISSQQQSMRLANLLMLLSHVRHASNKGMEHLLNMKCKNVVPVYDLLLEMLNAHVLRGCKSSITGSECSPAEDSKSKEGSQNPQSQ", "assay": "blockers of SRC-3 recruitment to ERβ – biochemical, ELISA, streptavidin-HRP readout, orthogonal assay, confirmation (AID 1060)"}, "Estrogen receptor beta [9]": {"molecular_target": "T1, Estrogen receptor beta"}, "Cytochrome P450 3A4": {"molecular_target": "Cytochrome P450 3A4 (Homo sapiens, UniProt P08684)", "sequence (P08684 whole entry)": "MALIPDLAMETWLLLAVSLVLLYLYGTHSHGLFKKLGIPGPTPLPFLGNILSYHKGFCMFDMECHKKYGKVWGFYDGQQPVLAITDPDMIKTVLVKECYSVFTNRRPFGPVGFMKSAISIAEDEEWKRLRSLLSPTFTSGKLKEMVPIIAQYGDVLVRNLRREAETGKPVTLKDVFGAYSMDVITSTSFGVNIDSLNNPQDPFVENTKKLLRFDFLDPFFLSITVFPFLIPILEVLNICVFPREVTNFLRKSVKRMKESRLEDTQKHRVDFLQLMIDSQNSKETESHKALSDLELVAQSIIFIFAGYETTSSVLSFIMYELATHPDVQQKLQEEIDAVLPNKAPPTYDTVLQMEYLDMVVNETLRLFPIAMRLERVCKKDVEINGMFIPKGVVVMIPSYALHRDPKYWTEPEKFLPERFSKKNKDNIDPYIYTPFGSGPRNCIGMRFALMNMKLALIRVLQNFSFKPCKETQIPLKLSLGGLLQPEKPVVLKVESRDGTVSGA", "settings": "Potency"}, "[10]": {"molecular_target": "Epstein-Barr nuclear antigen 1 (Epstein-Barr virus (strain B95-8) (HHV-4) (Human herpesvirus 4), UniProt P03211)", "sequence (P03211 whole entry)": "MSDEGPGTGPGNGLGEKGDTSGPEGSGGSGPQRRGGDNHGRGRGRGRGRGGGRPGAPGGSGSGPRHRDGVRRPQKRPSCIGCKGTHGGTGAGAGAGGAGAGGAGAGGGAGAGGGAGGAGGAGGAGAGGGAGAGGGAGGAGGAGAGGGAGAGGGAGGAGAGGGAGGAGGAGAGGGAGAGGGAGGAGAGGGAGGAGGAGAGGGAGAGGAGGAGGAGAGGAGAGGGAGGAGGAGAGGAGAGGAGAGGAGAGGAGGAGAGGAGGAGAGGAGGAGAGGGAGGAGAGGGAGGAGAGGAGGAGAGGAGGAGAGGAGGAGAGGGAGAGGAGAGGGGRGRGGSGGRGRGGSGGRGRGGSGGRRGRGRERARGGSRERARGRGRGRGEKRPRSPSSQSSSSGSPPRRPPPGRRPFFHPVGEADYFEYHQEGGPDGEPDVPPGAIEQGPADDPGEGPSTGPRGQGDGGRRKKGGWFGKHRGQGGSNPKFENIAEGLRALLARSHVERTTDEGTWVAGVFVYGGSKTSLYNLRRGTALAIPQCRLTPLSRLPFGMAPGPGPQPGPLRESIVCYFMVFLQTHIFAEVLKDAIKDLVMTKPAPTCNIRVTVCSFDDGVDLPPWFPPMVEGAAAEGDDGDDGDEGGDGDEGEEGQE", "assay": "inhibition of EBV nuclear antigen 1 DNA binding – biochemical, fluorescence polarization, 1536-well, dose response (AID 2381);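 further: fluorescence polarization of a Cy5 DNA probe bound by EBNA-1 protein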", "parameters": "species or system human gammaherpesvirus 4"}, "[11]": {"molecular_target": "Lytic switch protein BZLF1 (Epstein-Barr virus (strain B95-8) (HHV-4) (Human herpesvirus 4), UniProt P03206)", "sequence (P03206 whole entry)": "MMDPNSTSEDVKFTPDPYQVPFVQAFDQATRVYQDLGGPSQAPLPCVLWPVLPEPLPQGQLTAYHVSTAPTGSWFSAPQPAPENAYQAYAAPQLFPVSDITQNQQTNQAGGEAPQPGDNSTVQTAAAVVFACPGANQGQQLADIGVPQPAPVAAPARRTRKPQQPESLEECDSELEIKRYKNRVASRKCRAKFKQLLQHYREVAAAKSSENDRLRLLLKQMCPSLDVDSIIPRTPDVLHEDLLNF", "assay": "inhibition of BZLF1 ZTA DNA binding – biochemical, fluorescence polarization, Epstein-Barr virus, 1536-well, counter-screen for EBNA-1 inhibitor project, dose response (AID 2377);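 further: fluorescence polarization of Cy5-labelled ZRE DNA probe bound by purified Zta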", "parameters": "species or system human gammaherpesvirus 4"}, "[12]": {"assay": "viability inhibitors of stage V gametocytes – luminescence, dose response (AID 1117278);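 further: gametocytes exposed to compound for 24 hours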", "assay_type": "functional, cell-based"}, "[13]": {"assay": "viability loss in human Jurkat cells – cell-based, luminescence, cytotoxicity control for P. falciparum gametocyte viability project, dose response (AID 1117277);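 further: potency reflects loss of cellular ATP meaning fewer viable cells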", "assay_type": "functional"}, "[14]": {"assay": "Trypanosoma cruzi growth suppression in host cells – NIH3T3 host cells, beta-gal luminescence, confirmation (AID 2044);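 further: intracellular parasites grown in NIH/3T3 mouse fibroblasts as host cells; luminescent beta-galactosidase reporter signal from transgenic T. cruzi replicating inside host cells; inhibitors lower the luminescence signal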", "assay_type": "functional, cell-based"}, "[15]": {"assay": "NIH3T3 cell viability loss – ATP luminescence, mouse fibroblasts, counter-screen, dose response (AID 2010);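 further: cells exposed to compound for about 90 hours before reading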", "assay_type": "functional, cell-based"}, "cells [16]": {"assay": "cells", "remark": "listed apart in the source"}}, "note": "Activity calls are given as the source filed them.", "data": [{"smiles": "Cc1cccc2cc(/C=C3\\N=C(c4ccccc4)OC3=O)c(N3CCOCC3)nc12", "values": [{"measurement": "EC50", "setting": "[1]", "value": "0.685 µM (active)"}, {"measurement": "IC50", "setting": "Ephrin type-A receptor 4", "value": "1.35 µM (active)"}]}, {"smiles": "O=C(CCNC(=O)c1ccc(Cl)cc1)NC1CCCc2ccccc21", "note": "(stereo unspecified)", "values": [{"measurement": "CC50", "setting": "[2]", "value": "40.2 µM (active)"}, {"measurement": "IC50", "setting": "cells [3]", "value": "13.4 µM (active)"}, {"measurement": "IC50", "setting": "Vero", "value": "19.8 µM (active)"}]}, {"smiles": "CN(C)c1cc2c(c(N(C)C)c1)C(=O)c1ccccc1C2=O", "values": [{"measurement": "IC50", "setting": "[4]", "value": "2.13 µM (active)"}, {"measurement": "IC50", "setting": "Nonstructural protein 1", "value": "14.1 µM (active)"}]}, {"smiles": "CCc1ccccc1NC1c2ccccc2C(=O)N1Cc1ccco1", "note": "(stereo unspecified)", "values": [{"measurement": "IC50", "setting": "[5]", "value": "> 50 µM (not active)"}, {"measurement": "IC50", "setting": "[6]", "value": "15.6 µM (not active)"}]}, {"smiles": "CC(=O)c1ccc(OC2C=CC(c3ccc(Cl)cc3)OC2CO)cc1", "note": "(stereo unspecified)", "values": [{"measurement": "AC50", "setting": "Cytochrome P450 2C9", "value": "5.01 µM (inconclusive)"}]}, {"smiles": "CCc1nn(C(C)C(=O)NCCN2CCN(c3cccc(C)c3C)CC2)c(=O)c2cc3occc3n12", "note": "(stereo unspecified)", "values": [{"measurement": "EC50", "setting": "[7]", "value": "> 50 µM (not active)"}]}, {"smiles": "N=c1c(-c2nc3ccccc3[nH]2)cc(C(=O)c2cccs2)nn1-c1ccc(Cl)cc1", "values": [{"measurement": "IC50", "setting": "Estrogen receptor beta [8]", "value": "> 50 µM (not active)"}, {"measurement": "IC50", "setting": "Estrogen receptor beta [9]", "value": "> 50 µM (not active)"}]}, {"smiles": "CNC(=O)[C@@H]1C[C@H]1[C@@H](NC(=O)CNC(=O)OCc1ccccc1)c1ccccc1", "values": [{"measurement": "AC50", "setting": "Cytochrome P450 3A4", "value": "15.8 µM (inconclusive)"}]}, {"smiles": "Nc1c(C(=O)Nc2ccc3c(c2)OCCO3)nnn1Cc1cccc(Cl)c1", "values": [{"measurement": "IC50", "setting": "[10]", "value": "9.25 µM (active)"}, {"measurement": "IC50", "setting": "[11]", "value": "> 111 µM (not active)"}]}, {"smiles": "O=C(CSc1nc2ccccc2[nH]1)NCc1ccco1", "values": [{"measurement": "IC50", "setting": "[12]", "value": "> 109 µM (inactive)"}, {"measurement": "IC50", "setting": "[13]", "value": "> 83.3 µM (inactive)"}]}, {"smiles": "CC(C)[C@]1(NC(=O)[C@H]2C=C3c4cccc5[nH]cc(c45)C[C@H]3N(C)C2)O[C@@]2(O)[C@H]3CCCN3C(=O)[C@H](Cc3ccccc3)N2C1=O", "values": [{"measurement": "AC50", "setting": "Cytochrome P450 2C9", "value": "7.94 µM (inconclusive)"}]}, {"smiles": "c1coc(-c2nnc3sc(Cc4cccs4)nn23)c1", "values": [{"measurement": "IC50", "setting": "Estrogen receptor beta [8]", "value": "4.41 µM (not active)"}, {"measurement": "IC50", "setting": "Estrogen receptor beta [9]", "value": "< 1.56 µM (active)"}]}, {"smiles": "NS(=O)(=O)c1ccc(NC(=O)COC(=O)/C(=C/c2cccs2)c2cccs2)cc1", "values": [{"measurement": "IC50", "setting": "[10]", "value": "17.1 µM (not active)"}, {"measurement": "IC50", "setting": "[11]", "value": "> 111 µM (not active)"}]}, {"smiles": "COc1ccc(/C=C/CN2CCCC(CCC(=O)NCc3ccc(F)c(F)c3)C2)cc1", "note": "(stereo unspecified)", "values": [{"measurement": "EC50", "setting": "[14]", "value": "< 0.1 µM (active)"}, {"measurement": "EC50", "setting": "[15]", "value": "> 60 µM (not active)"}, {"measurement": "EC50", "setting": "cells [16]", "value": "0.037 µM (active)"}]}]}
